# Experimental data published in patent publication US5449667A, “Amidothiophosphate derivative and insecticide, nematocide and acaricide containing the same as active ingredient” (priority 1993, dated 1995).
# How the values were obtained:
# [1] = system: larvae of Spodoptera litura; assay: Insecticidal activity against larvae of Spodoptera litura; assay type: in vivo; details: 144 h, 4-instar larvae, artificial bait, after six days
# Experimental: Biological Test 1 Insecticidal Activity Against Larvae of Spodoptera litura
# Emulsifiable concentrates were prepared for each of the present compounds according to the formulation example 1. Thirteen grams of artificial bait for Spodoptera litura were placed in a polyethylene cup (diameter: 11 cm) and impregnated with 2 ml of the emulsifiable concentrate diluted with water (500 ppm). Ten 4-instar larvae of Spodoptera litura were put in the polyethylene cup. After six days, the mortality of the larvae was examined.
# [2] = system: larvae of Nilaparvata lugens; assay: Insecticidal activity against larvae of Nilaparvata lugens; assay type: in vivo; details: 500 ppm aqueous solution, rice stalk dip, approximately 30 larvae, after six days
# Experimental: Biological Test 2 Insecticidal Activity Against Larvae of Nilaparvata lugens
# A stalk of a rice plant was dipped for one minute in a 500 ppm aqueous solution obtained by diluting each emulsifiable concentrate prepared from each of the present compounds according to the formulation example 1 and then air-dried. The rice plant stalk was placed in a polyethylene cup (diameter: 5.5 cm) where filter paper (diameter: 5.5 cm) impregnated with 1 ml of water was put. Approximately 30 larvae of Nilaparvata lugens were put in the polyethylene cup. After six days, the activity was evaluated according to the following criteria:
# B: the number of the living larvae is not greater than 5
# C: the number of the living larvae is 6 or more
# Blattella germanica = assay: Insecticidal activity against Blattella germanica; assay type: in vivo; details: 24 h, 0.7 ml of 500 ppm on filter paper, ten male cockroaches, after one day
# Experimental: Biological Test 3 Insecticidal Avtivity Against Blattella germanica
# (§1) Filter paper of 5.5 cm in diameter was laid in the bottom of a polyethylene cup (diameter: 5.5 cm). After 0.7 ml of a 500 ppm aqueous solution obtained by diluting each emulsifiable concentrate prepared from each of the present compounds according to the formulation example 1 was dropped on the filter paper and approximately 30 mg of sucrose was uniformly scattered and put on the filter paper as bait, ten male cockroaches (Blattella germanica) were left in the cup with a cover. After one day, the mortality was examined for the cockroaches.
# Musca domestica = assay: Insecticidal activity against Musca domestica; assay type: in vivo; details: 24 h, 0.7 ml of 500 ppm on filter paper, ten female house flies, after one day
# Experimental: Biological Test 4 Insecticidal Activity Against Musca domestica
# as §1, with “scattered,” for “scattered”, “female house flies (Musca domestica)” for “male cockroaches (Blattella germanica)”, “flies.” for “cockroaches.”
# [3] = system: larvae of Diabrotica undecimpunctata; assay: Insecticidal activity against larvae of Diabrotica undecimpunctata; assay type: in vivo; details: 1 ml of 50 ppm on filter paper, approximately thirty eggs, after eight days
# Experimental: Biological Text 5 Insecticidal Activity Against Larvae of Diabrotica undecimpunctata
# Filter paper of 5.5 cm in diameter was laid in the bottom of a polyethylene cup (diameter: 5.5 cm). After 1 ml of a 50 ppm aqueous solution obtained by diluting each of the emulsifiable concentrate prepared from each of the present compounds according to the formulation example 1 was dropped on the filter paper and one sprouting corn crop was placed as bait on the paper, approximately thirty eggs of Diabrotica undecimpunctata were left on the filter paper. After eight days, the rate of hatched larvae was examined. The activity were evaluated according to the following criteria:
# B: Mortality not less than 90% but less than 100%
# C: Mortality less than 90%
# root-knot nematodes = assay: Activity against root-knot nematodes; assay type: in vivo; parameters: key: -: substantially no root knots; +: several to ten odds root knots; ++: larger number of root knots (heavier damage than +); details: 25 ppm active ingredient in soil, tomato root, after four weeks
# Experimental: Biological Test 6 Activity Against Root-knot Nematodes
# One ml of a 500 ppm aqueous solution of each of the present compounds obtained by diluting each emulsifiable concentrate prepared from each of the present compounds according to the formulation example 1 was mixed with 19 g of soil contaminated with root-knot nematodes (concentration of active ingredient in soil: 25 ppm). After the soil was kept at 27° C. for 24 hours, the root of a tomato plant (approximately two weeks after sprouting) in a cup was covered with the soil and some water was given to the plant. After four weeks, damage to the root of the tomato plant was evaluated according to the following criteria:
# -: substantially no root knots
# +: several to ten odds root knots
# ++: larger number of root knots (heavier damage than +)
# [4] = system: larvae of Culex pipiens pallens; assay: Insecticidal activity against larvae of Culex pipiens pallens; assay type: in vivo; details: 3.5 ppm active ingredient in water, twenty last-instar larvae, after one day
# Experimental: Biological Test 7 Insecticidal Activity Against Larvae of Culex pipiens pallens
# Each of emulsifiable concentrates prepared from each of the present compounds according to the formulation example 1 was diluted with water, and 0.7 ml of the diluted solution was added to 100 ml of ion-exchanged water (concentration of active ingredient: 3.5 ppm). Twenty last-instar larvae of Culex pipiens pallens were left in the water. After one day, the activity was evaluated according to the following criteria:
# A: Mortality not less than 90%
# B: Mortality not less than 10% but less than 90%
# C: Mortality less than 10%
# Tetranychus cinnabarinus = assay: Activity against Tetranychus cinnabarinus; assay type: in vivo; parameters: key: -: substantially no damage; +: little damage; ++: heavy damage; details: 500 ppm, 15 ml spray plus 2 ml soil injection, kidney bean, after eight days
# Experimental: Biological Test 8 Activity Against Tetranychus cinnabarinus
# Ten male mites (Tetranychus cinnabarinus) per leaf were placed on a pot-planted kidney bean (Phasseolus vulgaris: seven days after sowing) and kept in a thermostatic chamber. After six days, 15 ml of a 500 ppm aqueous solution obtained by diluting each emulsifiable concentrate of each of the present compounds according to the formulation example 1 was sprayed in a pot simultaneously with injection of 2 ml of the solution into soil. After eight days, damage to the plant by Tetranychus cinnabarinus was evaluated according to the following criteria:
# -: substantially no damage
# [5] = Acute toxicity in oral application to mice; details: mouse, in vivo, 5 mg/kg, ICR male mice, after seven days
# Experimental: Biological Test 9 Acute Toxicity in Oral Application to Mice
# Each of the present compound was diluted with corn oil to a predetermined concentration. After subjecting the mice to a twenty-hour fasting, 0.1 ml of the diluted solution per 10 g weight was forcibly applied into the stomach of each ICR male 6-week old mouse (weight: 24 to 31 g). The mice were given food and water four hours after the application and thereafter regularly fed and watered, and kept in a cage. After seven days, the mortality was examined for the mice (4 mice/group).
Compound,mortality at 500 ppm [1] [%],Activity [2],mortality at 500 ppm (Blattella germanica) [%],mortality at 500 ppm (Musca domestica) [%],Activity [3],Activity (root-knot nematodes),Activity [4],Activity (Tetranychus cinnabarinus),mortality at 168 h [5] [%]
CCOP(=O)(SC(C)CC)N(CC#N)C(=O)OCC(C)C (stereo not drawn) [Compound 18],100,A (no living larvae),100,100,A (Mortality 100%),-,A (Mortality not less than 90%),-,
CCOP(=O)(SC(C)CC)N(CC#N)C(=O)c1ccccc1 (stereo not drawn) [Compound 16],100,A (no living larvae),100,100,A (Mortality 100%),-,A (Mortality not less than 90%),-,
CCCSP(=O)(OC)N(CC#N)C(=O)OC(C)C (stereo not drawn) [Compound 3],100,A (no living larvae),100,100,A (Mortality 100%),-,A (Mortality not less than 90%),-,
CCCSP(=O)(OC)N(CC#N)C(=O)OC (stereo not drawn) [Compound 1],100,A (no living larvae),100,100,A (Mortality 100%),-,A (Mortality not less than 90%),-,
CCCSP(=O)(OC)N(CC#N)C(=O)OCC (stereo not drawn) [Compound 2],100,A (no living larvae),100,100,A (Mortality 100%),-,A (Mortality not less than 90%),-,
CCC(C)SP(=O)(OC)N(CC#N)C(=O)OC (stereo not drawn) [Compound 4],100,A (no living larvae),100,100,A (Mortality 100%),-,A (Mortality not less than 90%),-,
"CCC(C)SP(=O)(NC)OC (stereo not drawn) [A, reference compound]",,,,,,,,,100
CCOC(=O)N(CCC#N)P(=O)(OCC)SC(C)CC (stereo not drawn) [Compound 20],100,,100,100,A (Mortality 100%),-,A (Mortality not less than 90%),-,
CCCSC(=O)N(CCC#N)P(=O)(OCC)SC(C)CC (stereo not drawn) [Compound 19],,,100,100,A (Mortality 100%),-,A (Mortality not less than 90%),-,
CCOP(=O)(SC(C)CC)N(CC#N)C(=O)OC(C)C (stereo not drawn) [Compound 17],100,A (no living larvae),100,100,A (Mortality 100%),-,A (Mortality not less than 90%),-,
CCOC(=O)N(CC#N)P(=O)(OCC)SC(C)CC (stereo not drawn) [Compound 10],100,,100,100,A (Mortality 100%),-,A (Mortality not less than 90%),-,
CCCSP(=O)(OCC)N(CC#N)C(=O)OC (stereo not drawn) [Compound 7],100,A (no living larvae),100,100,A (Mortality 100%),-,A (Mortality not less than 90%),-,
CCC(C)SP(=O)(OC)N(CC#N)C(=O)Oc1ccccc1 (stereo not drawn) [Compound 15],,,,,,,,-,
"CCOP(=O)(SC(C)CC)N(CC#N)C(=O)Oc1ccccc1 (stereo not drawn) [Compound 14, O-ethyl S-sec-butyl N-cyanomethyl N-phenoxycarbonyl phosphoroamidothiolate]",100,A (no living larvae),100,100,A (Mortality 100%),-,A (Mortality not less than 90%),-,
CCOC(=O)N(CC#N)P(=O)(OC)SC(C)CC (stereo not drawn) [Compound 6],100,A (no living larvae),100,100,A (Mortality 100%),-,A (Mortality not less than 90%),-,
CCCSC(=O)N(CC#N)P(=O)(OCC)SC(C)CC (stereo not drawn) [Compound 12],100,,100,100,A (Mortality 100%),-,A (Mortality not less than 90%),-,
CCOP(=O)(SC(C)CC)N(CC#N)C(=O)SC (stereo not drawn) [Compound 11],100,,100,100,A (Mortality 100%),-,A (Mortality not less than 90%),-,
CCCSP(=O)(OC)N(CCC#N)C(=O)SC (stereo not drawn) [Compound 5],100,,,100,A (Mortality 100%),-,,-,
CCCSP(=O)(OCC)N(CC#N)C(=O)OCC (stereo not drawn) [Compound 8],100,A (no living larvae),100,100,A (Mortality 100%),-,A (Mortality not less than 90%),-,
